Where two headings read alike, the source gives them in different places.
Target: T1, IRAK4 (Homo sapiens, UniProt Q9NWZ3)
T1 sequence (Q9NWZ3 1-460): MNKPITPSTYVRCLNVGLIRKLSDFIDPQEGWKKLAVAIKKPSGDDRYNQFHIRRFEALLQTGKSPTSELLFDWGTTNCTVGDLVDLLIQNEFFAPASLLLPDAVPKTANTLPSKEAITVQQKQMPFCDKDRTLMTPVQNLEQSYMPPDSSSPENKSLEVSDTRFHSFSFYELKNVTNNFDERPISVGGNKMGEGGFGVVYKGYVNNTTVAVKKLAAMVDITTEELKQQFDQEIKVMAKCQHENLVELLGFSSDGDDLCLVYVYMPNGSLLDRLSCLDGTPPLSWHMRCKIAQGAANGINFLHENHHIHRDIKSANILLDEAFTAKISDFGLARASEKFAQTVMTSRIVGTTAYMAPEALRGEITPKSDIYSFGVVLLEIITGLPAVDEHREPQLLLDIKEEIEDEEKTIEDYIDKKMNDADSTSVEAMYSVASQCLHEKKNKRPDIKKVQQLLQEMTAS
Experiment: Hibit fluorescence detection of proteolysis (IRAK4-HiBiT in HEK293T cells)
Type: cell-based
Design: host or cells: HEK293T (ATCC)
Settings: for Dmax: HEK-293T; for DC50: IRAK4-HiBiT, HEK293T cells, 24 h
Experimental: Utilizing HiBiT tag technology, the HiBiT tag-containing sequence (Seq. ID. No. 1, Beijing Tsingke Biotech Co., Ltd.) was connected to the IRAK4 plasmid (Seq. ID. No. 2, Beijing Tsingke Biotech Co., Ltd.), and the plasmid was transfected into HEK293T cells (ATCC). […] The 6-well plate that was incubated overnight was taken out. After the plate was left at room temperature for 15 min, the obtained mixture was added dropwise to the 6-well plate. […] Culture was performed at 37°C and 5% CO2 for 24 h. The 384-well plate was taken out and equilibrated to room temperature. 40 µL of Nano-Glo® HiBiT Lytic Detection System (Promega N3030) was added to each well and incubated at room temperature for 15 min. […] Prism 9.3 software was used to perform fitting analysis for data, and non-linear fitting (non-liner inhibitor (Bell-shaped)) and four parameters (4 parameter) were used, and the parameters was as follows: Span1 = Plateau1−Dip [formula] Span2 = Plateau2−Dip [formula] Section1 = Span1/(1+10^(∧)((LogEC50_1−X)*nH1)) [formula] Section2 = Span2/(1+10^(∧)((X−LogEC50_2)*nH2)) [formula]
The equation was as follows: Y=Dip+Section1+Section2. • Seq. ID. No. 1 ([…]), other DNA, synthetic construct, sequence length 33; • Seq. ID. No. 2 [formula]

SMILES | Dmax [%] | DC50 (read-out: DC50) [nM] | DC50 [nM]
Cn1c(=O)n(C2CCC(=O)NC2=O)c2cccc(N3CCN(C[C@H]4CC[C@H](n5cc(-n6cc(-c7cnn8ccc(NCC9CC9)nc78)nn6)c(C(F)F)n5)CC4)CC3)c21 (stereo partly drawn) [Compound 225] | 70 to 80 | < 0.5 | 
Cn1c(=O)n(C2CCC(=O)NC2=O)c2cccc(N3CCC4(CCN(C[C@H]5CC[C@H](n6cc(-n7cc(-c8cnn9ccc(N%10CCS(=O)(=O)CC%10)nc89)nn7)c(C(F)F)n6)CC5)CC4)CC3)c21 (stereo partly drawn) [Example 112] | > 80 |  | < 0.5
CN(C[C@H]1CC[C@H](n2cc(-n3cc(-c4cnn5ccc(N6CCOCC6)nc45)nn3)c(C(F)F)n2)CC1)C1CCC(Nc2cccc3c2n(C)c(=O)n3C2CCC(=O)NC2=O)CC1 (stereo partly drawn) [Example 20, 3-(4-((4-((((1r,4r)-4-(3-(difluoromethyl)-4-(4-(5-morpholinopyrazolo[1,5-a]pyrimidin-3-yl)-1H-1,2,3-triazol-1-yl)-1H-pyrazol-1-yl)cyclohexyl)methyl)(methyl)amino)cyclohexyl)amino)-3-methyl-2-oxo-2,3-dihydro-1H-benzo[d]imidazol-1-yl)piperidine-2,6-dione] | > 80 |  | < 0.5
Cn1c(=O)n(C2CCC(=O)NC2=O)c2cccc(C3CN(C4CN(C[C@H]5CC[C@H](n6cc(-n7cc(-c8ccc9cc(C(N)=O)cnn89)nn7)c(C(F)F)n6)CC5)C4)C3)c21 (stereo partly drawn) [Example 83] | 70 to 80 |  | < 0.5
Cn1c(=O)n(C2CCC(=O)NC2=O)c2cccc(N3CC4CCC(C3)N4C[C@H]3CC[C@H](n4cc(-n5cc(-c6ccc7cc(C(N)=O)cnn67)nn5)c(C(F)F)n4)CC3)c21 (stereo partly drawn) [Example 86, 7-(1-(3-(difluoromethyl)-1-((1R,4R)-4-(3-(1-(2,6-dioxy-3-yl)-3-methyl-2-oxo-2,3-dihydro-1H-benzo[d]imidazol-4-yl)-3,8-diazabicyclo[3.2.1]oct-8-yl)methyl)cyclohexyl-1H-pyrazol-4-yl)-1H-1,2,3-triazol-4-yl)pyrrolo[1,2-b]pyridazine-3-carboxamide] | > 80 |  | 1 to 5
Cn1c(=O)n(C2CCC(=O)NC2=O)c2cccc(N3CCC(N4CCN(C[C@H]5CC[C@H](n6cc(-n7cc(-c8cnn9ccc(NCC%10CC%10)nc89)nn7)c(C(F)F)n6)CC5)CC4)CC3)c21 (stereo partly drawn) [Example 114] | > 80 |  | < 0.5
C[C@H]1CN(c2cccc3c2n(C)c(=O)n3C2CCC(=O)NC2=O)CCN1C[C@H]1CC[C@H](n2cc(-n3cc(-n4ccc5cc(C(N)=O)cnc54)nn3)c(C(F)F)n2)CC1 (stereo partly drawn) [Example 156] | > 80 |  | < 0.5
Cn1c(=O)n(C2CCC(=O)NC2=O)c2cccc(N3CC4CN(C[C@H]5CC[C@H](n6cc(-n7cc(-c8cnn9ccc(N%10CCOCC%10)nc89)nn7)c(C(F)F)n6)CC5)CC4C3)c21 (stereo partly drawn) [Example 33, 3-(4-((1R,4R)-4-(3-(difluoromethyl)-4-(4-(5-morpholinopyrazolo[[1,5-a]pyrimidin-3-yl)-1H-1,2,3-triazol-1-yl)-1H-pyrazol-1-yl)cyclohexyl)methylhexahydropyrrolo[3,4-c]pyrrol-2(1H)-yl)-3-methyl-2-oxo-2,3-dihydro-1H-benzo[d]imidazol-1-yl)piperidine-2,6-dione] | 60 to 70 |  | < 0.5
Cn1c(=O)n(C2CCC(=O)NC2=O)c2cccc(N3CCC4(CCN(C[C@H]5CC[C@H](n6cc(-n7cc(-c8cnn9ccc(N[C@@H]%10CCCC[C@@H]%10O)nc89)nn7)c(C(F)F)n6)CC5)CC4)C3)c21 (stereo partly drawn) [Example 152] | > 80 |  | < 0.5
Cn1c(=O)n(C2CCC(=O)NC2=O)c2cccc(C(=O)N3CCC(NC[C@H]4CC[C@H](n5cc(-n6cc(-c7cnn8ccc(N9CCOCC9)nc78)nn6)c(C(F)F)n5)CC4)CC3)c21 (stereo partly drawn) [Example 29] | 70 to 80 |  | > 5
Cn1c(=O)n(C2CCC(=O)NC2=O)c2cccc(N3CC(N4CCN(C[C@H]5CC[C@H](n6cc(-n7cc(-c8cnn9ccc(N%10CCOCC%10)nc89)nn7)c(C(F)F)n6)CC5)CC4)C3)c21 (stereo partly drawn) [Example 42, 3-(4-(3-(4-(((1r,4r)-4-(3-(difluoromethyl)-4-(4-(5-morpholinopyrazolo[1,5-a]pyrimidin-3-yl)-1H-1,2,3-triazol-1-yl)-1H-pyrazol-1-yl)cyclohexyl)methyl)piperazin-1-yl)azetidin-1-yl)-3-methyl-2-oxo-2,3-dihydro-1H-benzo[d]imidazol-1-yl)piperidine-2,6-dione] | < 60 |  | < 0.5
Cn1c(=O)n(C2CCC(=O)NC2=O)c2cccc(N3CCN(C[C@H]4CC[C@H](n5cc(-n6cc(-c7cnn8ccc(NCCC(C)(C)O)nc78)nn6)c(C(F)F)n5)CC4)CC3)c21 (stereo partly drawn) [Compound 239] | > 80 | < 0.5 | 
Cn1c(=O)n(C2CCC(=O)NC2=O)c2cccc(N3CC4CCC(C3)N4C[C@H]3CC[C@H](n4cc(-n5cc(-c6cnn7ccc(N8CCOCC8)nc67)nn5)c(C(F)F)n4)CC3)c21 (stereo partly drawn) [Example 49, 3-(4-((1R,4R)-4-(3-(difluoromethyl)-4-(4-(5-morpholinopyrazolo[[1,5-a]pyrimidin-3-yl)-1H-1,2,3-triazol-1-yl)-1H-pyrazol-1-yl)cyclohexyl)-3,8-diazabicyclo[3.2.1]oct-3-yl)-3-methyl-2-oxo-2,3-dihydro-1H-benzo[d]imidazol-1-yl)piperidine-2,6-dione] | 70 to 80 |  | 1 to 5
Cn1c(=O)n(C2CCC(=O)NC2=O)c2cccc(C#CC3CN(C[C@H]4CC[C@H](n5cc(-n6cc(-c7cnn8ccc(N9CCOCC9)nc78)nn6)c(C(F)F)n5)CC4)C3)c21 (stereo partly drawn) [Example 27] | 60 to 70 |  | < 0.5
Cn1c(=O)n(C2CCC(=O)NC2=O)c2cccc(NC(=O)N3CCC4(CCN(C[C@H]5CC[C@H](n6cc(-n7cc(-c8ccc9cc(C(N)=O)cnn89)nn7)c(C(F)F)n6)CC5)C4)CC3)c21 (stereo partly drawn) [Example 90, 2-(((1r,4r)-4-(4-(4-(3-carbamoylpyrrolo[1,2-b]pyridazin-7-yl)-1H-1,2,3-triazol-1-yl) -3-(difluoromethyl)-1H-pyrazol-1-yl)cyclohexyl)methyl)-N-(1-(2,6-dioxopiperidin-3-yl)-3-methyl-2-oxo-2,3-dihydro-1H-benzo[d]imidazol-4-yl)-2,8-diazaspiro[4.5]decan-8-carboxamide] | 70 to 80 |  | > 5
Cn1c(=O)n(C2CCC(=O)NC2=O)c2cccc(C#CC3CCN(C[C@H]4CC[C@H](n5cc(-n6cc(-c7ccc8cc(C(N)=O)cnn78)nn6)c(C(F)F)n5)CC4)CC3)c21 (stereo partly drawn) [Example 79] | 70 to 80 |  | 0.5 to 1
Cn1c(=O)n(C2CCC(=O)NC2=O)c2cccc(NC[C@H]3CC[C@@H](N(C)C[C@H]4CC[C@H](n5cc(-n6cc(-c7cnn8ccc(N9CCOCC9)nc78)nn6)c(C(F)F)n5)CC4)CC3)c21 (stereo partly drawn) [Example 21, 3-(4-((((1S,4s)-4-((((1r,4R)-4-(3-(difluoromethyl)-4-(4-(5-morpholinopyrazolo[1,5-a]pyrimidin-3-yl)-1H-1,2,3-triazol-1-yl)-1H-pyrazol-1-yl)cyclohexyl)methyl)(methyl)amino)cyclohexyl)methyl)amino)-3-methyl-2-oxo-2,3-dihydro-1H-benzo[d]imidazol-1-yl)piperidine-2,6-dione] | < 60 |  | < 0.5
CN1CCN(c2ccn3ncc(-c4cn(-c5cn([C@H]6CC[C@H](CN7CCC8(CC7)CCN(c7cccc9c7n(C)c(=O)n9C7CCC(=O)NC7=O)C8)CC6)nc5C(F)F)nn4)c3n2)CC1 (stereo partly drawn) [Compound 228] | 70 to 80 | < 0.5 | 
Cn1c(=O)n(C2CCC(=O)NC2=O)c2cccc(N3CCN(C4CCN(C[C@H]5CC[C@H](n6cc(-n7cc(-c8cnn9ccc(N%10CCC(C)(O)CC%10)nc89)nn7)c(C(F)F)n6)CC5)CC4)CC3)c21 (stereo partly drawn) [Compound 236] | > 80 | < 0.5 | 
NC(=O)c1cnn2c(-c3cn(-c4cn(C5CCN(CC6CN(c7ccc8c(c7)C(=O)N(C7CCC(=O)NC7=O)C8=O)C6)CC5)nc4C(F)F)nn3)ccc2c1 (stereo not drawn) [Example 75] | > 80 |  | 0.5 to 1
CN1CCN(c2ccn3ncc(-c4cn(-c5cn([C@H]6CC[C@H](CN7CCN(C8CCN(c9cccc%10c9n(C)c(=O)n%10C9CCC(=O)NC9=O)CC8)CC7)CC6)nc5C(F)F)nn4)c3n2)CC1 (stereo partly drawn) [Compound 231] | 70 to 80 | 0.5 to 1 | 

— EP4759807A1, “PROTEOLYSIS TARGETING CHIMERA COMPOUND FOR DEGRADING IRAK4 AND USE THEREOF” (Shenzhen Zhongge Biological Technology Co., Ltd., priority 2023, dated 2025)
